Measured values reported in PubChem BioAssay (NCI).
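Abbreviation: GI50, concentration required for 50% inhibition of growth. TGI: total growth inhibition.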

Legend:
Assay in all cases: NCI tumour cell line growth inhibition, 384-well format
SN12C renal = test system: SN12C renal
SR leukemia = test system: SR leukemia
HS 578T breast = test system: HS 578T breast
HCC-2998 colon = test system: HCC-2998 colon
IGROV1 ovarian = test system: IGROV1 ovarian
HOP-62 NSCLC = test system: HOP-62 NSCLC
M14 melanoma = test system: M14 melanoma
COLO 205 colon = test system: COLO 205 colon
ACHN renal = test system: ACHN renal
BT-549 breast = test system: BT-549 breast
SK-OV-3 ovarian = test system: SK-OV-3 ovarian
SF-539 CNS = test system: SF-539 CNS
EKVX NSCLC = test system: EKVX NSCLC
786-0 renal = test system: 786-0 renal
RPMI-8226 leukemia = test system: RPMI-8226 leukemia
MOLT-4 leukemia = test system: MOLT-4 leukemia
UACC-62 melanoma = test system: UACC-62 melanoma
UO-31 renal = test system: UO-31 renal
SW-620 colon = test system: SW-620 colon
DU-145 prostate = test system: DU-145 prostate
CAKI-1 renal = test system: CAKI-1 renal
NCI-H226 lung = test system: NCI-H226 lung
HL-60(TB) leukemia = test system: HL-60(TB) leukemia
HOP-92 NSCLC = test system: HOP-92 NSCLC
A549 NSCLC = test system: A549 NSCLC
T-47D breast = test system: T-47D breast
MDA-MB-231 breast = test system: MDA-MB-231 breast
SNB-75 CNS = test system: SNB-75 CNS
OVCAR-4 ovarian = test system: OVCAR-4 ovarian
HCT-15 colon = test system: HCT-15 colon
MALME-3M melanoma = test system: MALME-3M melanoma
SK-MEL-28 melanoma = test system: SK-MEL-28 melanoma
U251 glioblastoma = test system: U251 glioblastoma
NCI-H460 NSCLC = test system: NCI-H460 NSCLC
OVCAR-8 ovarian = test system: OVCAR-8 ovarian
MDA-MB-468 breast = test system: MDA-MB-468 breast
SNB-19 CNS = test system: SNB-19 CNS
A498 renal = test system: A498 renal
HT29 colon = test system: HT29 colon
LOX IMVI melanoma = test system: LOX IMVI melanoma
MDA-MB-435 melanoma = test system: MDA-MB-435 melanoma
SF-295 CNS = test system: SF-295 CNS
HCT-116 colon = test system: HCT-116 colon
KM12 colon = test system: KM12 colon
RXF 393 renal = test system: RXF 393 renal
UACC-257 melanoma = test system: UACC-257 melanoma
MCF7 breast = test system: MCF7 breast
PC-3 prostate = test system: PC-3 prostate
OVCAR-3 ovarian = test system: OVCAR-3 ovarian
NCI-H522 lung = test system: NCI-H522 lung
NCI-H322M lung = test system: NCI-H322M lung
NCI/ADR-RES ovarian = test system: NCI/ADR-RES ovarian
NCI-H23 lung = test system: NCI-H23 lung
TK-10 renal = test system: TK-10 renal
CCRF-CEM leukemia = test system: CCRF-CEM leukemia
SK-MEL-5 melanoma = test system: SK-MEL-5 melanoma
SF-268 CNS = test system: SF-268 CNS
K-562 leukemia = test system: K-562 leukemia

Molecule `CC/C(=C(/c1ccc(/C=C/C(=O)O)cc1)c1ccc2[nH]ncc2c1)c1ccc(F)cc1Cl` has a GI50 (SN12C renal) of 17.1 µM, a TGI (SN12C renal) of 31.6 µM and a GI50 (SR leukemia) of 3 µM. It also gave a TGI (SR leukemia) of 6.35 µM, a GI50 (HS 578T breast) of 15.6 µM and a TGI (HS 578T breast) of 29 µM. It also gave a GI50 (HCC-2998 colon) of 18.3 µM, a TGI (HCC-2998 colon) of 32.3 µM and a GI50 (IGROV1 ovarian) of 15.2 µM. The TGI (IGROV1 ovarian) was 29 µM, the GI50 (HOP-62 NSCLC) was 9.36 µM and the TGI (HOP-62 NSCLC) was 21.4 µM. It also gave a GI50 (M14 melanoma) of 7.57 µM, a TGI (M14 melanoma) of 20.5 µM and a GI50 (COLO 205 colon) of 15.1 µM. The TGI (COLO 205 colon) was 28.7 µM, the GI50 (ACHN renal) was 13.7 µM and the TGI (ACHN renal) was 26.6 µM. For the same molecule, the GI50 (BT-549 breast) was 14.7 µM, the TGI (BT-549 breast) was 27.9 µM and the GI50 (SK-OV-3 ovarian) was 18 µM. The TGI (SK-OV-3 ovarian) was 32.5 µM, the GI50 (SF-539 CNS) was 14.3 µM and the TGI (SF-539 CNS) was 27.4 µM. It also gave a GI50 (EKVX NSCLC) of 14.7 µM, a TGI (EKVX NSCLC) of 28.2 µM and a GI50 ([…]-0 renal) of 12.7 µM. The TGI (786-0 renal) was 25.9 µM, the GI50 (RPMI-8226 leukemia) was 5.4 µM and the TGI (RPMI-8226 leukemia) was 16.9 µM. The GI50 (MOLT-4 leukemia) was 12.9 µM, the TGI (MOLT-4 leukemia) was 25.9 µM and the GI50 (UACC-62 melanoma) was 13 µM. The TGI (UACC-62 melanoma) was 25.8 µM, the GI50 (UO-31 renal) was 10.1 µM and the TGI (UO-31 renal) was 21.8 µM. It also gave a GI50 (SW-620 colon) of 18.1 µM, a TGI (SW-620 colon) of 32.2 µM and a GI50 (DU-145 prostate) of 15.9 µM. It also gave a TGI (DU-145 prostate) of 29.4 µM, a GI50 (CAKI-1 renal) of 16.6 µM and a TGI (CAKI-1 renal) of 30.4 µM. The GI50 (NCI-H226 lung) was 18.1 µM, the TGI (NCI-H226 lung) was 32.1 µM and the GI50 (HL-60(TB) leukemia) was 6.03 µM. For the same molecule, the TGI (HL-60(TB) leukemia) was 18.5 µM, the GI50 (HOP-92 NSCLC) was 14.2 µM and the TGI (HOP-92 NSCLC) was 27.6 µM. It also gave a GI50 (A549 NSCLC) of 10.4 µM, a TGI (A549 NSCLC) of 22.3 µM and a GI50 (T-47D breast) of 11.9 µM. For the same molecule, the TGI (T-47D breast) was 25.2 µM, the GI50 (MDA-MB-231 breast) was 15.1 µM and the TGI (MDA-MB-231 breast) was 28.4 µM. The GI50 (SNB-75 CNS) was 13.7 µM, the TGI (SNB-75 CNS) was 26.6 µM and the GI50 (OVCAR-4 ovarian) was 14.2 µM. The TGI (OVCAR-4 ovarian) was 28 µM, the GI50 (HCT-15 colon) was 12.4 µM and the TGI (HCT-15 colon) was 25.2 µM. It also gave a GI50 (MALME-3M melanoma) of 14.8 µM, a TGI (MALME-3M melanoma) of 28 µM and a GI50 (SK-MEL-28 melanoma) of 12.5 µM. It also gave a TGI (SK-MEL-28 melanoma) of 26.1 µM, a GI50 (U251 glioblastoma) of 11.8 µM and a TGI (U251 glioblastoma) of 24.2 µM. It also gave a GI50 (NCI-H460 NSCLC) of 16.6 µM, a TGI (NCI-H460 NSCLC) of 30.5 µM and a GI50 (OVCAR-8 ovarian) of 15.3 µM. For the same molecule, the TGI (OVCAR-8 ovarian) was 28.7 µM, the GI50 (MDA-MB-468 breast) was 11.5 µM and the TGI (MDA-MB-468 breast) was 23.8 µM. It also gave a GI50 (SNB-19 CNS) of 14.4 µM, a TGI (SNB-19 CNS) of 27.5 µM and a GI50 (A498 renal) of 10.9 µM. It also gave a TGI (A498 renal) of 22.9 µM, a GI50 (HT29 colon) of 16.7 µM and a TGI (HT29 colon) of 30.5 µM. For the same molecule, the GI50 (LOX IMVI melanoma) was 10.5 µM, the TGI (LOX IMVI melanoma) was 22.4 µM and the GI50 (MDA-MB-435 melanoma) was 2.71 µM. The TGI (MDA-MB-435 melanoma) was 7.22 µM, the GI50 (SF-295 CNS) was 4.65 µM and the TGI (SF-295 CNS) was 17 µM. For the same molecule, the GI50 (HCT-116 colon) was 15.3 µM, the TGI (HCT-116 colon) was 29.4 µM and the GI50 (KM12 colon) was 14.4 µM. It also gave a TGI (KM12 colon) of 27.5 µM, a GI50 (RXF 393 renal) of 8.35 µM and a TGI (RXF 393 renal) of 21 µM. For the same molecule, the GI50 (UACC-257 melanoma) was 15.1 µM, the TGI (UACC-257 melanoma) was 29 µM and the TGI (MCF7 breast) was 15.1 µM. It also gave a GI50 (PC-3 prostate) of 13.7 µM, a TGI (PC-3 prostate) of 26.7 µM and a GI50 (OVCAR-3 ovarian) of 14.3 µM. The TGI (OVCAR-3 ovarian) was 27.6 µM, the GI50 (NCI-H522 lung) was 14.6 µM and the TGI (NCI-H522 lung) was 27.8 µM. It also gave a GI50 (NCI-H322M lung) of 14.2 µM, a TGI (NCI-H322M lung) of 27.4 µM and a GI50 (NCI/ADR-RES ovarian) of 14.1 µM. The TGI (NCI/ADR-RES ovarian) was 27.7 µM, the GI50 (NCI-H23 lung) was 14.7 µM and the TGI (NCI-H23 lung) was 27.9 µM. For the same molecule, the GI50 (TK-10 renal) was 16.3 µM, the TGI (TK-10 renal) was 31.2 µM and the GI50 (CCRF-CEM leukemia) was 10.5 µM. It also gave a TGI (CCRF-CEM leukemia) of 22.3 µM, a GI50 (SK-MEL-5 melanoma) of 12.6 µM and a TGI (SK-MEL-5 melanoma) of 25.2 µM. It also gave a GI50 (SF-268 CNS) of 15.6 µM, a TGI (SF-268 CNS) of 29 µM and a GI50 (K-562 leukemia) of 14.5 µM. For the same molecule, the TGI (K-562 leukemia) was 29.5 µM.
